Results reported in patent publication US7863304B2, “Analogs of glycyl-prolyl-glutamate” (priority 2001, dated 2011).
Where a SMILES comes first, the peptide text is derived from it. [ ]: non-standard residue; d: D form. ξ: configuration not given here. Hyp = O=C(O)[C@@H]1C[C@@H](O)CN1; Nva = CCC[C@H](N)C(=O)O; ξPip = O=C(O)C1CCCCN1; Aib = CC(C)(N)C(=O)O

Columns and labels:
striatal cells = test: Striatal cell culture, 30 nM okadaic acid injury, MTT viability; type: cell-based, Wistar rats; conditions: for neuroprotection against okadaic acid induced loss of cell viability: okadaic acid (30 nM), 24 h, MTT, striatal cell culture (FIGS. 3, 4, 6)
Description: (§1) Two pregnant Wistar rats (gestational day 18) underwent Caesarean section according to approved procedures from the Animal Ethics Committee of the University of Auckland. The Wistar dams were anaesthetised in a CO2-enriched atmosphere and sacrificed by subsequent spinal cord dislocation. The embryos were removed from their embryonic sacs and decapitated. After incisions into the skull with fine scissors, the embryonic brain was removed with a fine spatula. Striatal tissue was separated from neocortical tissue under the microscope and placed into serum-free DMEM/F-12 medium supplemented with penicillin/streptomycin (100 u/mL). Tissue underwent 15 trituration steps using a P1000 pipettor to obtain dissociated cells, which were centrifuged for 5 min at 250 G (4° C.) and the supernatant was discarded. Cells were re-suspended into 1 mL DMEM/F-12 medium and were kept on ice. Cell suspension (400,000 cells/cm2) was applied to 0.1 mg/mL poly-L-lysine pre-coated 96-well plates (3 h at 37° C.) and the volume was increased up to 100 μL with DMEM/F-12+5% FBS. Cells were cultivated at 37° C. in 100% humidity in a 5% CO2 atmosphere. After 24 h the medium was changed to serum-free Neurobasal/B27. Cell medium was changed every 3 days and maintained until 8 days in vitro (DWV).
(§2) Striatal cells were injured after 2, 3, 7 or 8 days in vitro. The injury paradigm involved 30 nM okadaic acid treatment with simultaneous administration of a GPE analog of this invention for 24 h. 1 μL of 3 μM okadaic acid stock solution together with 1 μL of GPE analog dissolved in PBS (vehicle received 2 μL of PBS) were incubated for 24 h with the striatal cells. Subsequently, 20 μL MTT (5 mg/mL in PBS) was added for 4 h. The reaction was terminated by addition of 100 μL 4% sodium dodecyl sulfate (SDS) solution. After 16-24 h incubation time, photometric extinction values are read at 595 nm. The difference between the vehicle and the okadaic acid injury condition was calculated. This value was set as the theoretical 100% recovery value. Measured values for the tested compounds were expressed in percentage of the 100% value. The unpaired Student's t-test was used for statistical analysis.

cortical cell culture = test: Rat cortical dissociated cell culture, okadaic acid injury, MTT viability; conditions: 100 nM okadaic acid
Experimental: (§3) Embryonic E18/19 wistar rats were used for the generation of dissociated cortical cell cultures. The rear portion (occipital cortex-area 17/18 of the visual cortex) of the cortical plate is used for the generation of the cultures. Cells were grown for 3-10 DIV in one part of serum-free medium and one part of rat cortex-derived cultivated astrocytic-conditioned medium (ACM).
(§4) 96-well tissue culture plates were coated with 0.2 mg/ml poly-L-lysine followed by 2 μg/ml laminin. Subsequently 60 μl of ACM were added per well and plate was stored at 37° C. until plating of cortical cells.
(§5) Whole cortices of P1/2 wistar pups were collected into separate tubes containing 4 ml DMEM-1 cortex per tube. The tissues were triturated a few times with a 5 ml sterile pipette to break up them up into smaller pieces. Each tube was poured separately into a reagent reservoir and triturated once with a 5 ml syringe and 18 gauge drawing needle. The mixture was then filtered through a 100 μm cell strainer into a 50 ml centrifuge tube. The strainer was washed with 5 ml DMEM. The cell solution was extended with DMEM to 50 ml of volume. The solution was then centrifuged for 5mins at 350g at RT. The cells were resuspended in 40 ml of DMEM+10% FBS. The cells were then reconstituted into a 75 cm^2 cell flask and incubated at 37° C./10% CO2/100% humidity in […]. […] The medium was replaced after 1 day with fresh DMEM+10% FBS. The cell growth was monitored and media+FBS replaced twice weekly until the cells were confluent (˜10-14 days). Once the confluency reached, the cells were washed once with 20 ml sterile PBS. Cells were incubated for 3 days in 30 ml Neurobasal medium+B27 supplement to maintain cells under serum-free conditions. Cell supernatant was then filter through a 0.22 μm sterile filter and frozen in aliquots at −80° C.
(§6) The tissues were stored in PBS+glucose solution on ice until all dissection was completed. Tissue material was centrifuged at 350g for 5 mins at RT. The supernatant was removed and cell pellets were incubated in 5 ml trypsin/EDTA solution (Invitrogen) for 8 mins at 37° C. Proteolysis was stopped by addition of one part of DMEM+10% FBS. Subsequently, the tissued were centrifuged at 350g for 5 mins at RT. The pellet was collected, washed (centrifugation) twice in NB/B27 medium (Invitrogen) and resuspended in 1 ml NB/B27 medium. Tissue was transferred into a petri dish and triturated twice with a glass pasteur pipette attached to a pipette to break up large pieces of tissue. The tissue was then triturated twice using a 1 ml syringe and 22 gauge needle and passed through a 100 μm cell strainer to remove remaining large tissue pieces. The cells were washed with 1 ml NB/B27. The number of viable neurons was counted and the percentage of cell viability determined. […] The cortical cells were incubated at 37° C./10% CO2/100% humidity.
(§7) In order to induce neuronal injury the phosphatase 1/2A antagonist okadaic acid is added for 24 hrs. Simultaneously, an analog of GPE of this invention was administered. After 24 hrs metabolic activity was measured by addition of MTT for 2-4 hrs followed by addition of SDS-solution and photometric end point measurement at 595 nm.
(§8) Student's unpaired t-test is used for testing for statistical significance when comparing uninjured controls with the injured neuronal rescue agent containing conditions.

[1] = test system: N-methyl-D-aspartate (NMDA) receptor; conditions: background statement; cited from earlier work
IGF-1 receptor = IGF-1 receptor (Homo sapiens, UniProt P08069); conditions: background statement; cited from earlier work
Sequence of IGF-1 receptor (P08069 31-736 limits assumed): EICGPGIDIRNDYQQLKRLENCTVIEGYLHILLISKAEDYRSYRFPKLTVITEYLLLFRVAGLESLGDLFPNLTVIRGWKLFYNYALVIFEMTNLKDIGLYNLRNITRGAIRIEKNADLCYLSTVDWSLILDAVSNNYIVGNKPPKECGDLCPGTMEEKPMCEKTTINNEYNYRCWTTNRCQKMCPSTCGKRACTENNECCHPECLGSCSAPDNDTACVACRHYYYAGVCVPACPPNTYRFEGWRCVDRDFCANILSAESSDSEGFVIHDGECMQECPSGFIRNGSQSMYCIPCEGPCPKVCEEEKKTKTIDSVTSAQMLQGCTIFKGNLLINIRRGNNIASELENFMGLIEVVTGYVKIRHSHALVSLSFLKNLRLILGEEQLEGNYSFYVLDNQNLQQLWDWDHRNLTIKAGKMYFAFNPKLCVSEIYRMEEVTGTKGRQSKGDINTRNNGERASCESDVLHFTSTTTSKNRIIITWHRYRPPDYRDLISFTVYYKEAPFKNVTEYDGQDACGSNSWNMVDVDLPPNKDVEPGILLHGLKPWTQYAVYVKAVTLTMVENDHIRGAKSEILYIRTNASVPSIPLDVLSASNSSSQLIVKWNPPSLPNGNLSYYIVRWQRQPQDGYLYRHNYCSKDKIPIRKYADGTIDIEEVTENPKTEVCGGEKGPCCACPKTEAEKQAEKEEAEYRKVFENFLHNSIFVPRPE
Sequence of IGF-1 receptor (P08069 741-1367 partner limits assumed): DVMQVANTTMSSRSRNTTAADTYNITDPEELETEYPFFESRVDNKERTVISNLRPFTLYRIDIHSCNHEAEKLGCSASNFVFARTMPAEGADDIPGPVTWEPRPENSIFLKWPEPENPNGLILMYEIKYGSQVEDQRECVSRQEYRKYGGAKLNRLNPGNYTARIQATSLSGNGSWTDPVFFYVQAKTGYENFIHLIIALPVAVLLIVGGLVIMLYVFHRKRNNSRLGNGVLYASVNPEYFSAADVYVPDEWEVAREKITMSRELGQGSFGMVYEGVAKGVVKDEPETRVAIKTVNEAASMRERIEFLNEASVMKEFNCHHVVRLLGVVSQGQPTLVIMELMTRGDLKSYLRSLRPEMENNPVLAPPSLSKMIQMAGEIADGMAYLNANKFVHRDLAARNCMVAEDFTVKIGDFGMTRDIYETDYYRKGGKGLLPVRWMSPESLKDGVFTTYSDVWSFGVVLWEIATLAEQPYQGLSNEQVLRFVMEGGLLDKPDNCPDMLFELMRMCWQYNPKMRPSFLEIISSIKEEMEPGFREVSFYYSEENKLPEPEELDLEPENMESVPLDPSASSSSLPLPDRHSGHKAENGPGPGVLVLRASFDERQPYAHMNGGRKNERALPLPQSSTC

[2] = Rat cortical dissociated cell culture, okadaic acid injury, MTT viability; conditions: Wistar, rat
Experimental: as §3, §4, §5, §6, §7, §8

cerebellar cells = test: Cerebellar microexplant culture, 3-NP/glutamate injury, count of cells with neurites; type: cell-based, Wistar rats; conditions: toxin alone, cerebellar cell culture (FIG. 7)
Experimental: Postnatal day 3, 4 or 8 Wistar rats were used for the study. The rats were sacrificed and placed in ice for 1 minute, decapitated and the cerebellum removed and placed on ice. Cerebellum tissue was placed in 1 ml of 0.65% glucose-supplemented PBS (10 μl 65% stock D (+)glucose/1 ml PBS) in a large Petri dish, chopped up into smaller sections and triturated with a 1 ml insulin syringe via a 23 gauge (0.4 mm) needle, and then squirted back into the glucose solution in the Petri dish. The tissue was sieved through (125 µm pore size) and centrifuged (2 minutes at 60×g) twice to exchange the medium into serum-free BSA-supplemented START V medium (Biochrom, Germany). […]
After explants were exposed to a GPE analog of this invention for the study period, cells were then rinsed in PBS and then fixed in increasing concentrations of paraformaldehyde (500 μl of 0.4% PFA was applied; then 1.2% PFA; then 3% PFA and finally 4% PFA (each fixation step: 2-3 minutes). Finally, the microexplants were rinsed in PBS. Neurons in the explants were then evaluated for morphology (presence of neurites) and counted as live cells per microscopic field. Four fields displaying highest cell density were counted per cover slip and the data presented as mean ±standard error of the mean (SEM); n=4 each. Statistical significance was evaluated by using the non-paired Student's t-test.

[3] = Striatal cell culture, 30 nM okadaic acid injury, MTT viability; type: cell-based, Wistar rats; conditions: Wistar, rat; okadaic acid alone, other studies FIGS. 2-6 (striatal and cortical cultures); read-out: decrease in numbers of viable cells
Description: as §1, §2

[4] = 24 hrs, MTT, cortical cell culture (FIG. 1)

NCC(=O)N1C[C@H](O)C[C@H]1C(=O)N[C@@H](CCC(=O)O)C(=O)O [analog 60, Glycyl-trans-4-hydroxy-L-prolyl-L-glutamic acid] (H-Gly-[Hyp]-Glu-OH)
statistical significance of neuroprotective effect (striatal cells; at concentrations of 100 nM and 100 μM and 1 mM, 30 nM okadaic acid, striatal (FIG. 3)): statistically significant effects
neuroprotection against okadaic acid induced loss of cell viability (striatal cells): neuroprorotective

CC(C)(N)C(=O)N1CCC[C@H]1C(=O)N[C@@H](CCC(=O)O)C(=O)O [analog 64, Aminoisobutryl-L-prolyl-L-glutamic acid] (H-[Aib]-Pro-Glu-OH)
protection from the loss of neural cell viability induced by okadaic acid (striatal cells; at 1 mM, 30 nM okadaic acid, striatal (FIG. 4)): complete protection
neuroprotective efficacy compared with GPE (striatal cells; concentration range 100 μM to 1 mM, 30 nM okadaic acid, striatal (FIG. 4)): more effective than GPE
neuroprotection against okadaic acid induced loss of cell viability (striatal cells): neuroprotective

CCC[C@H](NC(=O)[C@@H]1CCCN1C(=O)CN)C(=O)O [analog 65, Glycyl-L-prolyl-L-Norvaline] (H-Gly-Pro-[Nva]-OH)
protection against loss of cell viability induced by okadaic acid (cortical cell culture; at nearly every concentration tested (10 nM to 1 mM), cortical cell culture (FIG. 5)): 100%
neuroprotection against okadaic acid induced loss of cell viability (cortical cell culture; broad range of concentrations, 10 nM to 1 mM, cortical cell culture (FIG. 5)): neuroprotective

NCC(=O)N1CCCCC1C(=O)N[C@@H](CCC(=O)O)C(=O)O (stereo partly drawn) [analog 66, Glycyl-D,L-pipecolinyl-L-glutamic Acid] (H-Gly-[ξPip]-Glu-OH)
statistical significance of neuroprotective effect (striatal cells; at concentrations of 100 nM, 100 mM and 1 mM, okadaic acid, striatal (FIG. 6)): statistically significant effects
neuroprotection against okadaic acid induced loss of cell viability (striatal cells): neuroprotective

NCC(=O)N1CCC[C@H]1C(=O)N[C@@H](CCC(=O)O)C(=O)O [GPE, Glycyl-L-Prolyl-L-Glutamate]
binding affinity to NMDA receptor [1]: low affinity
neuroprotection against okadaic acid induced loss of cell viability (cortical cell culture; [4]): reversed the okadaic acid induced loss of cell viability
binding to IGF-1 receptor (IGF-1 receptor): does not bind

CC1(C)SCN(C(=O)CN)[C@@H]1C(=O)N[C@@H](CCC(=O)O)C(=O)O [analog 49, Glycyl-L-thia-5,5-dimethylprolyl-L-glutamic acid]
neuroprotection against okadaic acid induced loss of cell viability (cortical cell culture; [4]): neuroprotective
protection against loss of neural cell viability caused by okadaic acid (cortical cell culture; concentration range 10 nM to 10 μM, cortical cell culture (FIG. 1)): 100%

C=C1[C@@H](O)[C@@H]2O[C@]3(CC[C@H](/C=C/[C@@H](C)[C@@H]4CC(C)=C[C@@]5(O[C@H](C[C@@](C)(O)C(=O)O)CC[C@H]5O)O4)O3)CC[C@H]2O[C@@H]1[C@@H](O)C[C@H](C)[C@H]1O[C@@]2(CCCCO2)CC[C@H]1C [okadaic acid, reference compound]
cytotoxicity at 24 h [2]: ~30%
decrease in the number of cells having neurites (cerebellar cells): over 80%
cytotoxicity at 24 h [3]: 10 to 50%
